Results from patent EP0096931B1, “Radiographic imaging agents” (priority 1982, dated 1983).

Assay: Skeletal imaging with a scintillation camera after intravenous injection of the imaging agent
Format: in vivo, human
Conditions: acid or its monosodium salt replaces AMDP in the Example I kit; compared with the Example I result
Experimental: An imaging agent is prepared using this kit by adding about 5 ml of a pertechnetate-Tc99m physiological saline solution, with an activity of about 0.278 x 10^10 Bq (about 75 mCi), from a commercial technetium source. The vial is agitated until the kit components are dissolved. About 1 ml of the agent is slowly injected, over a period of about 30 seconds, into an adult human subject weighing about 75 kg.

**Q.** For `NCC(O)(P(=O)(O)O)P(=O)(O)O` [ethane-1-hydroxy-2-amino-1,1-diphosphonic acid], which “skeletal images, carrier used instead of AMDP in the kit of Example I” value (“skeletal images, carrier used instead” for short) is on record?
**A.** Its value is “substantially similar results”.

**Q.** With `CN(C)C(P(=O)(O)O)P(=O)(O)O` [methane-N,N-dimethylaminodiphosphonic acid] as the compound, how does the “skeletal images, carrier used instead” value read?
**A.** The value was “substantially similar results”.

**Q.** Which “skeletal images, carrier used instead” value does the source give for `CNC(P(=O)(O)O)P(=O)(O)O` [methane-N-methylaminodiphosphonic acid] here?
**A.** Its value is “substantially similar results”.

**Q.** Which “skeletal images, carrier used instead” value does the source give for `NC(O)(P(=O)(O)O)P(=O)(O)O` [methaneaminohydroxydiphosphonic acid] here?
**A.** Its value is “substantially similar results”.

**Q.** Which “skeletal images, carrier used instead” value does the source give for `NCCC(O)(P(=O)(O)O)P(=O)(O)O` [propane-1-hydroxy-3-amino-1,1-diphosphonic acid] here?
**A.** The value was “substantially similar results”.
